The subject of assay [1] is SK-BR-3. Briefly: normalised viability (% of control), CellTiter-Blue; higher = more viable cells (about 100 = DMSO control). The settings on record: incubation time: 72 h. The method, boiled down:
(§1)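 Compound dissolved in 5 µl medium was pre-loaded into 384-well plates, and breast cancer cell lines in 20 µl suspension were seeded on top and incubated 72 h. After adding 2.5 µl CellTiter-Blue reagent for 2 h at 37 °C, fluorescence was read at 560/590 nm. Plates were normalised to vehicle (100) and a positive kill control (0), with Z'-factor quality control. Each value is normalised viability at a single listed concentration from the series.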

In assay [2] the test system is DU-4475. The description is as above. The settings on record: incubation time: 72 h. Put shortly: as §1
In assay [3] the test system is MFM-223. The description is as above. Particulars: incubation time: 72 h. The method, boiled down:
as §1

Assay [4] deals with HDQ-P1. The assay is described as above. Particulars: incubation time: 72 h. Put shortly: as §1
Assay [5] concerns BT-549. Described as above. Particulars: incubation time: 72 h. The method, boiled down: as §1
Assay [6] relates to MDA-MB-231. Described as above. The settings on record: incubation time: 72 h. Put shortly:
as §1

Assay [7] concerns HCC1143. Described as above. The settings on record: incubation time: 72 h. The method, boiled down:
as §1

The test system of assay [8] is CAL-148. Described as above. Particulars: incubation time: 72 h. The method, boiled down: as §1
Assay [9] has as its system MFM-223. The settings on record: 72 h. The method, boiled down:
(§2)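 A 20 µl suspension of breast cancer cells was placed in 384-well plates that already contained compound at 5 concentrations in 10-fold steps across a compound-specific 10,000-fold range, and the plates were left for 72 h. CellTox Green fluorescence at 485/520 nm gave cell death, and CellTiter-Glo luminescence, read after 10 min at room temperature, gave viability. Each plate was normalised to 0.1 % DMSO and a positive kill control. EC50 was fitted from the curves and censored at the top concentration.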

The test system of assay [10] is HDQ-P1. The settings on record: 72 h. Put shortly:
as §2

Assay [11] has as its system HCC1599. The settings on record: 72 h. The method, boiled down: as §2
The test system of assay [12] is CAL-148. Particulars: 72 h. Put shortly: as §2
Assay [13] deals with SK-BR-3. The settings on record: 72 h. The method, boiled down: (§3)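 For viability, cells received 2.5 µl CellTiter-Blue for 2 h at 37 °C and fluorescence was read at 560/590 nm. Before this, breast cancer cell lines in 20 µl suspension had been incubated for 72 h on 384-well plates pre-loaded with compound dissolved in 5 µl medium. EC50 was obtained from a percent-inhibition dose-response fit censored at the highest concentration, after normalisation of each plate to vehicle and a positive kill control; rows with a zero drug sensitivity score were discarded.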

Assay [14] deals with HCC1937. Particulars: 72 h. The method, boiled down: as §3
Assay [15] deals with MFM-223. Particulars: 72 h. Put shortly: as §3
This is another data set of the same source.

The test system of assay [16] is MDA-MB-468. Particulars: 72 h. The method, boiled down:
as §3

Assay [17] relates to Hs578T. Particulars: 72 h. Put shortly: as §3
Assay [18] concerns BT-549. Particulars: 72 h. Put shortly: as §3
Assay [19] deals with MDA-MB-231. Particulars: 72 h. The method, boiled down:
as §3

In assay [20] the test system is MDA-MB-436. The settings on record: 72 h. Put shortly:
as §3

Assay [21] has as its system BT-474. The settings on record: 72 h. The method, boiled down: as §3
In assay [22] the test system is CAL-120. Particulars: 72 h. The method, boiled down: as §3
In assay [23] the test system is MCF-10A. Particulars: 72 h. As for the experimental part: (§4)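 Drug sensitivity and resistance testing (DSRT) of breast cancer cell lines in 384-well plates, 5 concentrations in 10-fold dilutions over a compound-specific 10,000-fold range. After 72 h, cytotoxicity was read by CellTox Green fluorescence and viability by CellTiter-Glo luminescence (multiplexed), normalised to DMSO and benzethonium chloride controls. EC50 is the inflection point of the fitted dose-response curve (bottom asymptote free, so it can be relative for partial curves) and is censored at the highest tested concentration. Rows with DSS 0 (no meaningful response) were excluded.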

In assay [24] the test system is HCC1937. Particulars: 72 h. As for the experimental part: as §4
This is another data set of the same source.

For assay [25], the system named is MDA-MB-453. Particulars: 72 h. As for the experimental part:
as §4

For assay [26], the system named is MFM-223. Particulars: 72 h. As for the experimental part:
as §4
This is another data set of the same source.

The subject of assay [27] is MDA-MB-468. The settings on record: 72 h. As for the experimental part:
as §4
This is another data set of the same source.

Assay [28] concerns HDQ-P1. Particulars: 72 h. As for the experimental part:
as §4
The source holds these as a separate data set.

The test system of assay [29] is CAL-85-1. Particulars: 72 h. As for the experimental part:
as §4

For assay [30], the system named is BT-549. The settings on record: 72 h. As for the experimental part: as §4
This is another data set of the same source.

For assay [31], the system named is CAL-51. Particulars: 72 h. As for the experimental part: as §4
In assay [32] the test system is MDA-MB-231. Particulars: 72 h. As for the experimental part: as §4
This is another data set of the same source.

The subject of assay [33] is MDA-MB-436. The settings on record: 72 h. As for the experimental part:
as §4
This is another data set of the same source.

For assay [34], the system named is BT-474. Particulars: 72 h. As for the experimental part:
as §4
This is another data set of the same source.

In assay [35] the test system is HDQ-P1. Particulars: 72 h. Put shortly:
as §3
The source holds these as a separate data set.

In assay [36] the test system is CAL-85-1. The settings on record: 72 h. The method, boiled down: as §3
This is another data set of the same source.

In assay [37] the test system is DU-4475. The settings on record: 72 h. The method, boiled down:
as §2

Assay [38] relates to HCC1143. The settings on record: 72 h. Put shortly:
as §2

The test system of assay [39] is CAL-148. The settings on record: 72 h. As for the experimental part: as §4
The source holds these as a separate data set.

The text below walks through data of the supplement of paper PMC4862054.

For the molecule `C[C@]12CC[C@H](O)CC1=CC[C@@H]1[C@@H]2CC[C@]2(C)C(c3cccnc3)=CC[C@@H]12` [Abiraterone], the normalised viability stood at 93.5% in assay [1] (5000 nM); 90.2% in [2] (50 nM); 87.8% in assay [3] (5000 nM); 110% in assay [4] (50 nM); 119% in assay [5] (5000 nM); 131% in [6] (5000 nM). Moreover, the normalised viability in assay [7] (5000 nM) worked out at 83%; in assay [8] (50 nM) it was 90.7%.
On to `CCCCCCCCc1ccc(CCC(N)(CO)CO)cc1` [Fingolimod], for which the “EC50, CellTiter-Glo” value was determined as 6920 nM in assay [9], 6870 nM in [10], 9540 nM in assay [11] and 9190 nM in assay [12]. In addition, the “EC50, CellTiter-Blue viability” value in assay [13] came out at 3870 nM; in [14], 2960 nM; in assay [15], 4430 nM; in [16], 3550 nM; in assay [17], 3440 nM; in assay [18], 2220 nM. Besides, the “EC50, CellTiter-Blue viability” value was determined as 2140 nM in assay [19]; 1780 nM in assay [20]; 3940 nM in assay [21]; 2380 nM in assay [22]; 5350 nM in [35]; 5290 nM in [36]. Also, the “EC50, CellTox Green” value is 1110 nM in assay [23]; 320 nM in assay [24]; 7630 nM in assay [25]; above 10000 nM in [26]; 2510 nM in assay [27]; 7660 nM in assay [28]. For the same molecule, the “EC50, CellTox Green” value in [29] is 2040 nM; in [30] it was 8700 nM; in [31] it was 7860 nM; in [32], 2650 nM; in assay [33] it was 8120 nM; in assay [34], 3460 nM. Moreover, the normalised viability in [1] (10000 nM) was found to be 3.17%; in assay [2] (100 nM), 107%; in [3] (10000 nM), 9.42%; in assay [4] (100 nM), 111%; in assay [5] (10000 nM), 8.23%; in assay [6] (10000 nM) it was 0.68%. The figures for the normalised viability in assay [7] (10000 nM) and in [8] (100 nM) were 69.5% and 87%, respectively.
With `Cn1c(=O)n(-c2ccc(C(C)(C)C#N)cc2)c2c3cc(-c4cnc5ccccc5c4)ccc3ncc21` [Dactolisib], the “EC50, CellTiter-Glo” value in [37] was 42.8 nM; in assay [9], 14.8 nM; in [10], 12.8 nM; in assay [38], 17.9 nM; in assay [12], 18.7 nM. Besides, the “EC50, CellTox Green” value in assay [24] came out at 80.7 nM; in assay [26], 579 nM; in assay [29] it was 197 nM; in assay [39] it was 100 nM.
On to `O=C(O)CCCc1ccc(N(CCCl)CCCl)cc1` [Chlorambucil], for which the “EC50, CellTiter-Blue viability” value in [14] amounted to 731 nM; in assay [16], 5340 nM. The “EC50, CellTox Green” value in assay [33] was above 10000 nM. Besides, the normalised viability in assay [1] (10000 nM) came out at 80.4%; in [2] (100 nM) it was 112%; in assay [3] (10000 nM), 85.8%; in assay [4] (100 nM), 111%; in [5] (10000 nM), 74.7%; in [6] (10000 nM), 88.4%. Further, the normalised viability in assay [7] (10000 nM) was 96%; in [8] (100 nM), 103%.
